According to US10179770B2, “Quinolines derivatives as novel anticancer agents” (GENOSCIENCE PHARMA, priority 2013, dated 2019):

Legend:
A375 = experiment: Cell proliferation assay at 10 μM; assay type: cell-based, human; settings: Homo sapiens, A-375, 72 h, read-out: Cell viability observed at 10 μM
How it was run: (§1)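 A375 and HCT-116 cells grown in DMEM with 10% FBS, seeded overnight, then exposed to compound at 10 μM for 72 h at 37 °C, 5% CO2 against vehicle control. Outgrowth read by MTS (CellTiter 96 Aqueous One) absorbance; each point the mean of two replicates.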

HCT-116 [1] = experiment: Cell proliferation assay at 10 μM; assay type: cell-based; settings: Homo sapiens, HCT-116, 72 h, read-out: Cell viability observed at 10 μM
How it was run: as §1

MOLM-14 = experiment: Cell proliferation assay at 10 μM; assay type: cell-based, human; settings: Homo sapiens, MOLM-14, 72 h, read-out: Cell viability observed at 10 μM
How it was run: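 MOLM-14 suspension cells (30,000/well, MEM alpha with 10% FBS) treated with compound at 10 μM, constant vehicle percentage, for 72 h at 37° C. Outgrowth measured by sulforhodamine B absorbance; each point is mean of two replicates.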

A-375 = experiment: EC50 determination in cancer cell lines; assay type: cell-based, human; settings: Homo sapiens, A-375, 72 h
Description: (§2) Compounds were added at different concentrations to each well, and cell cultures were incubated for 72 h. Vehicle (DMSO or H2O) was used as a control, and all compounds were tested in a constant percentage of vehicle. Cell outgrowth was measured using for adherent cells CellTiter […] Aqueous One Solution Cell Proliferation Assay (Promega) and for cell suspension, Sulforhodamine B colorimetric assay as described in Vichai et al. (Vichai, V. and Kirtikara, K. Nat. Protoc. 2006 (1) 1112-1116). Absorbance was measured using an Infinite F200 Pro or Sunrise TECAN plate reader.
(§3) The human melanoma cell line A375, colorectal carcinoma cell line HCT-116, hepatocellular carcinoma cell line HepG2 were cultured in Dulbecco's modified Eagle's medium supplemented with 10% fetal bovine serum and 1% Penicillin-Streptomycin. The human melanoma cell lines SK-MEL-28 and SK-MEL-5 were cultured in Minimum Essential Medium. The colorectal carcinoma cell lines HT-29 and Colo205 were respectively cultured in Mc Coy's and RPMI media. The human leukemia cell lines MV4-11 and KG-1 were cultured in Iscove's Modified Dulbecco's Media. The human leukemia cell line MOLM-14 was cultured in Minimum Essential Medium Alpha Medium supplemented with 10% Fetal Bovine Serum and 1% Penicillin-Streptomycin All culture media were supplemented with 10% fetal bovine serum and 1% Penicillin-Streptomycin except for MV4-11 cell line 20% fetal bovine serum and 1% Penicillin-Streptomycin. All the cell lines were maintained at 37° C. with 5% C02.
(§4) Briefly, adherent cells, A375, HCT-116, HepG2, SK-MEL-28, SK-MEL-5, HT-29 and Colo205 cells were respectively plated at 800, 5,000, 7,000, 2,500, 3,000-5,000, 5,000 or 5,000 cells per well onto 96-well plates in 90 μL of media per well and were allowed to grow overnight before the assay. For MV4-11 and KG-1 cells that grow in suspension, 40,000-60,000 cells were plated onto 96-well plates immediately before the assay. MOLM-14 cell line, that grow in suspension, 30,000 cells were plated onto 96-well plates immediately before the assay.
(§5) The cell growth measure was the same as described in example 51.
(§6) The experimental data are analyzed using a computer program, Graphpad Prism (GraphPad Software, Inc. La Jolla, Calif.) and EC50 values were determined as the dose of compound required to reduce absorbance values to 50% of the signal obtained for vehicle treated cell cultures and were a mean of at least two independent experiments except for EC50 values with (*) where […].

SK-MEL-5 = experiment: EC50 determination in cancer cell lines; assay type: cell-based; settings: Homo sapiens, 72 h
Description: as §2, §3, §4, §5, §6

[2] = test system: patient derived acute myeloid leukemia (AML) cell lines; experiment: Cell growth inhibition assay, patient derived AML cells; assay type: cell-based, human; settings: Homo sapiens, 48 h
Description: The patient derived acute myeloid leukemia (AML) cells were obtained after written informed consent under the Institut Paoli Calmette (IPC) institutional review board approval and under the strict compliance of the Helsinki declaration on medical research involving human subjects. […] Each compound was added at different concentrations (combinations of six concentrations) to each well, and cell cultures were incubated for 48 h. Vehicle (H2O) was used as a control, and all compounds were tested in a constant percentage of vehicle. Cell outgrowth was measured using the CellTiter-Glo luminescent cell viability assay as described by the manufacturer (Promega, Ref G7571 Madison, Wis., USA) using a Centro (Berthold, France) plate reader. In each experiment, each point represents the average of triplicates in cell culture. The experimental data are analyzed using a computer program, Graphpad Prism (GraphPad Software, Inc.

[3] = test system: PBMC Healthy voluntary donor; experiment: Cell growth inhibition assay, PBMC of healthy donors; assay type: cell-based, human; settings: Homo sapiens, PBMC
Description: Each compound was added at different concentrations (combinations of six concentrations) to each well, and cell cultures were incubated for 48 h. Vehicle (H2O) was used as a control, and all compounds were tested in a constant percentage of vehicle. Cell outgrowth was measured using the CellTiter-Glo luminescent cell viability assay as described by the manufacturer (Promega, Ref G7571 Madison, Wis., USA) using a Centro (Berthold, France) plate reader. In each experiment, each point represents the average of triplicates in cell culture. The experimental data are analyzed using a computer program, Graphpad Prism (GraphPad Software, Inc.

HepG2 = experiment: EC50 determination in cancer cell lines; assay type: cell-based, human; settings: Homo sapiens, HepG2, 72 h
Description: as §2, §3, §4, §5, §6

HCT-116 [4] = experiment: EC50 determination in cancer cell lines; assay type: cell-based, human; settings: Homo sapiens, HCT-116, 72 h
Description: as §2, §3
Briefly, adherent cells, A375, HCT-116, HepG2, SK-MEL-28, SK-MEL-5, HT-29 and Colo205 cells were respectively plated at 800, 5,000, 7,000, 2,500, 3,000-5,000, 5,000 or 5,000 cells per well onto 96-well plates in 90 μL of media per well and were allowed to grow overnight before the assay. For MV4-11 and KG-1 cells that grow in suspension, 40,000-60,000 cells were plated onto 96-well plates immediately before the assay. MOLM-14 cell line, that grow in suspension, 30,000 cells were plated onto 96-well plates immediately before the assay. […]
as §6

HT-29 = experiment: EC50 determination in cancer cell lines; assay type: cell-based; settings: Homo sapiens, 72 h, * n>2
Description: as §2, §3, §4, §5, §6

| Compound | viability at 10 µM (A375) [%] | viability at 10 µM (HCT-116 [1]) [%] | viability at 10 µM (MOLM-14) [%] | EC50 (A-375) [µM] | EC50 (SK-MEL-5) [µM] | EC50 ([2]; Patient 3, subtype Tri8) [µM] | EC50 ([2]; Patient 8, subtype FLT3−) [µM] | EC50 ([2]; Patient 9, subtype FLT3+) [µM] | EC50 ([2]; Patient 10, subtype Inv 3) [µM] | EC50 ([2]; Patient 12, subtype 5 & 7) [µM] | EC50 ([2]; Patient 13, subtype MLL) [µM] | EC50 ([2]; Patient 16, subtype Inv 3) [µM] | EC50 ([3]; PBMC Healthy voluntary donor 1) [µM] | EC50 ([3]; PBMC Healthy voluntary donor 2) [µM] | EC50 (HepG2) [µM] | EC50 (HCT-116 [4]) [µM] | EC50 (HT-29) [µM] |
| --- | --- | --- | --- | --- | --- | --- | --- | --- | --- | --- | --- | --- | --- | --- | --- | --- | --- |
| CC(C)(C)NC1CCN(c2cc(-c3ccc(Cl)cc3)nc3ccccc23)CC1.Cl.Cl [XII-4, 2-(4-chloro-phenyl)-4-(4-N-tert-butylamino-piperidin-1-yl)quinoline dihydrochloride] | < 20 | < 20 | < 20 | 5 | 5 | 5 | 21 | > 40 | 25 | > 40 | 27 | 19 | 43 | 15 |  |  |  |
| Cc1ccc(-c2cc(N3CCC(NC(C)(C)C)CC3)c3ccccc3n2)cc1.Cl.Cl [XIII-8, 2-(4-methyl-phenyl)-4-(4-N-tert-butylamino-piperidin-1-yl)quinoline dihydrochloride] | < 20 | < 20 | < 20 | 6 | 7 | 15 | 27 | 22 | 35 | 21 | 25 | 24 | 42 | 16 | 17 | 8 | 16 |
| CCN(CC)C1CCN(C(C)c2cc(-c3ccccc3)nc3ccccc23)CC1.Cl.Cl (stereo not shown) [XIX-3, 2-phenyl-4-{1-[4-(N,N-diethylamino)piperidin-1-yl]-eth-1-yl}quinoline dihydrochloride] | < 20 | 20 to 40 | 20 to 40 | 9 | 6 | 8 | 21 | 18 | 28 | 16 | 16 | 22 |  | 21 | 22 | 12 | 18 |
| CCN(CC)C1CCN(C(C)c2cc(-c3ccc4ccccc4c3)nc3ccccc23)CC1.Cl.Cl (stereo not shown) [XXIV-3, 2-(2-naphtyl)-4-{1-[4-(N,N-diethylamino)-piperidin-1-yl]-eth-1-yl}quinoline dihydrochloride] | < 20 | < 20 | < 20 | 3 | 3 | 2 | 10 | 17 | 13 | 11 | 8 | 6 | 8 | 7 | 11 | 4 | 7 |
